Experimental findings from ChEMBL document CHEMBL5727881, “Pyridone amides as modulators of sodium channels” (2020) are described below.

A short description of the experiment: Electrophysiology Assay: Patch clamp electrophysiology was used to assess the efficacy and selectivity of sodium channel blockers in dorsal root ganglion neurons. Rat neurons were isolated from the dorsal root ganglions and maintained in culture for 2 to 10 days in the presence of NGF (50 ng/ml) (culture media consisted of NeurobasalA supplemented with B27, glutamine and antibiotics). Small diameter neurons (nociceptors, 8-12 μm in diameter) were visually identified and probed with fine tip glass electrodes connected to an amplifier (Axon Instruments). The “voltage clamp” mode was used to assess the compound's IC50 holding the cells at −60 mV. In addition, the “current clamp” mode was employed to test the efficacy of the compounds in blocking action potential generation in response to current injections. The results of these experiments contributed to the definition of the efficacy profile of the compounds.
As usually defined, the IC50 is the concentration at which inhibition is half-maximal. With `O=C(Nc1cc[nH]c(=O)c1)c1ccc(C(F)(F)F)cc1O[C@@H]1CC2CCC1C2` (stereo not given in full), the half-inhibitory concentration (IC50) turned out to be 765 nM. Next, `COc1ccc(Oc2ccc(F)cc2C(=O)Nc2cc[nH]c(=O)c2)c(C)c1`: 330 nM.

On to `COc1cc(C)ccc1Oc1ccc(OC(F)(F)F)cc1C(=O)Nc1cc[nH]c(=O)c1`, for which the concentration for half-maximal inhibition (IC50) is 68 nM.

For the molecule `O=C(Nc1ccn(CCO)c(=O)c1)c1ccc(C(F)(F)F)cc1Oc1ccc(F)cc1`, the half-inhibitory concentration (IC50) came out at 2800 nM. As for `COc1cc(Oc2cc(C(F)(F)F)ccc2C(=O)Nc2cc[nH]c(=O)c2)ccc1F`, the IC50 came to 26 nM.
